Data set [1] has as its system cocaine-induced increases in synaptic dopamine. As to the kind of experiment: MicroPET imaging of [11C]-raclopride binding after cocaine. The settings on record: cocaine alone, average. Type of data set: in vivo, rat.
In another data set the test system is alanine aminotransferase. The settings on record: cited from earlier work.
In the next data set the test system is GABA transport. Particulars: cited from earlier work.
The next data set has as its system Sprague-Dawley rats. The settings on record: Vigabatrin/Cocaine, vigabatrin 300 mg/kg; ref Dewey et al.[7]; cited from earlier work.
Another data set relates to subjects. Particulars: trial of 103 subjects, placebo 7.5%; cited from earlier work.
For data set [2], the system named is succinic semialdehyde dehydrogenase. The settings on record: cited from earlier work.
A further data set has as its system patients. Particulars: following chronic administration; cited from earlier work.
In another data set the test system is white matter of the CNS. The settings on record: characterized as intramyelinic edema; cited from earlier work.

The values that follow come from paper PMC3257419 (Journal of Medicinal Chemistry, 2011).

Take `COC(=O)[C@H]1[C@@H](OC(=O)c2ccccc2)C[C@@H]2CC[C@H]1N2C` [Cocaine, reference compound]: the “reduction of [11C]-raclopride binding” value in data set [1] turned out to be 22%.
Regarding `C=CC(N)CCC(=O)O` (stereo not drawn) [Vigabatrin, vigabatrin], in the data set with alanine aminotransferase, the “effect on alanine aminotransferase activity in vivo” value was “reduce activities”. In addition, the “action on GABA reuptake” value with GABA transport is listed as “GABA reuptake inhibitor”. Moreover, the “Time in chamber (min) unpaired” value in the data set on Sprague-Dawley rats is listed as 7.1 ± 0.6 min. In addition, the “subjects who achieved abstinence” value with subjects is 28%. Besides, the “implicit times of the ERGs” value with Wistar albino rats (CPP-115 20 mg/kg, vigabatrin 200 mg/kg) is reported as “little or no drug effect”. Moreover, the “clinical observation in the first three weeks of treatment” value in the data set on Wistar albino rats (CPP-115 20 mg/kg, vigabatrin 200 mg/kg daily i.p.) is given as “sedative effects”. Further, the “10 Hz flicker ERGs compared to both CPP-115 and controls” value in the data set on Wistar albino rats (both sexes, both time points, data not shown) is “significantly lower”. Also, in the data set with Wistar albino rats (females, 200 mg/kg, data not shown), the “rod, mesopic, and cone b-wave implicit times compared to controls or CPP-115” value is “significantly increased”. In data set [2], the “effect on succinic semialdehyde dehydrogenase activity in vivo” value was “reduce activities”. The “patients with visual field defects (VFDs)” value with patients was 25–50%. The CNS histopathological finding result in the data set on white matter of the CNS is “microvacuolization in the white matter of the CNS”.
